Assay results as given in patent US20220347125A1, “ANTITUMOR AGENT AND COMPOUNDING AGENT” (Keio University, priority 2019, published 2022).
d = 2'-deoxy (DNA); r = 2'-OH (RNA)

What was measured:
A549, HCT116 and HSC4 = assay: Cell viability, oxyfedrine with SSZ or BSO, statements for all three lines (Experimental Example 11); details: 48 hours; for effect on cell survival rate: 400 μM sulfasalazine alone or 100 μM L-buthionine sulfoximine alone
Experimental: Alveolar basal epithelial adenocarcinoma cell line A549, colon adenocarcinoma cell line HCT116, and oral squamous carcinoma cell line HSC-4, all of which are resistant to sulfasalazine or L-buthionine-sulfoximine, were seeded in 96-well plates at 4000 cells/well, and the culture was started. RPMI was used for the A549 and DMEM was used for the HCT116 and HSC-4 as culture media. After 24 hours, each medium was replaced with a medium containing 50 or 100 μM oxyfedrine or an equal volume of DMSO, and 0 (no sulfasalazine and no L-buthionine sulfoximine) or 400 μM sulfasalazine or 100 μM L-buthionine sulfoximine, and the culture was continued for 48 hours. Then, the cells were assayed for cell viability using CellTiter-Glo (Promega), and a cell survival rate in each case was calculated taking the number of live cells in the control (DMSO added, and sulfasalazine and L-buthionine sulfoximine not added) as 100%.

[1] = test system: sulfasalazine-resistant tumor cells (HCT116 and HSC-4); assay: Intracellular HNE accumulation, SSZ or BSO with OXY (Experimental Example 13); assay type: cell-based; details: SSZ, BSO or OXY alone, or SSZ or BSO in combination with OXY
Experimental: (§1) As in Experimental Example 1, HSC-4 cells were cultured in a medium containing 50 μM dyclonine or an equal volume of DMSO and 0 μM (not added) or 400 μM sulfasalazine, and the treated cells were fixed with 4% PFA-PBS. Then, the cells were permeabilized with 0.2% Triton X100-PBS, followed by blocking with 3% BSA-PBS. Subsequently, fluorescent staining was performed using an anti-HNE antibody as the primary antibody and AlexaFluor 488-conjugated anti-mouse IgG antibody as the secondary antibody. As a positive control, cells incubated with 50 μM HNE for 30 min were used and stained using antibodies in a similar manner.
In this experimental example, sulfasalazine-resistant tumor cells (HCT116 and HSC-4) were used, and the cells were treated as in Experimental Example 6 and then observed under a fluorescence microscope.

[2] = test system: SSZ-resistant tumor cells (HCT116 and HSC-4); assay: Intracellular GSH levels, GSH-Glo Glutathione Assay (Experimental Example 12); assay type: cell-based; details: BSO or OXY alone, or SSZ with OXY, after 48 hours
Experimental: SSZ-resistant tumor cells (HCT116 and HSC-4) were used and the cells were treated in a similar manner to that in Example 11, and the intracellular GSH levels were measured after 48 hours using a GSH-Glo Glutathione Assay Kit (Promega).

ALDH = ALDH activity, ALDEFLUOR Kit with FACS in HSC-4 cells (Experimental Example 5); assay type: cell-based; details: 50 μM dyclonine 24 hours, or DEAB, DMSO-treated cells approximately 25%
Experimental: HSC-4 cells, a sulfasalazine-resistant oral squamous carcinoma cell line, were seeded at 8×10^5 cells/dish in 10-cm cell culture dishes, and culture was started. DMEM was used as the culture medium. After 24 hours, the medium was replaced with a medium containing 50 μM dyclonine (solvent: DMSO), and the cells were cultured for another 24 hours. The cells were then collected, stained with the ALDEFLUOR Kit (STEMCELL Technologies) for ALDH activity in the presence of N,N-diethylaminobenzaldehyde (DEAB), and analyzed by FACS (“Dyclonine” in the figure). As a control, experimental results are shown for cells cultured in the absence of DEAB which were not stained with the ALDEFLUOR Kit (“Unstained” in the figure), and cells that were stained with the ALDEFLUOR Kit after replacing the medium with an equal volume of medium with DMSO and without dyclonine (“Non-treatment” in the figure). For the positive cell counts, a gate was set to gate out positive cells to almost 0% in the DMSO-treated sample stained with the ALDEFLUOR Kit in the presence of DEAB (“DEAB” in the figure), and the positive rate in each case was calculated.

A549 cells [3] = assay: Cell viability, Nrf2 siRNA or ML385 with OXY and SSZ or BSO (Experimental Example 18); assay type: cell-based; details: in addition to 400 μM SSZ and 50 μM OXY, 48 hours
Experimental: A549 cells were transfected with siRNA against the Nrf2 gene as in Example 17, or the medium was supplemented with ML385 that is an Nrf2 inhibitor. Cells were cultured for 48 hours in a medium containing 50 μM OXY, and 400 μM SSZ or 100 μM BSO, as in Example 11. Then, the cells were assayed for cell viability. As a control, the experiments were performed in a medium without any of the above. DMSO, however, was added appropriately to add a constant volume of DMSO in all cases.

HSC-4 cells [4] = assay: Intracellular HNE accumulation, anti-HNE fluorescent staining (Experimental Example 6); assay type: cell-based; details: 50 μM dyclonine and/or 400 μM sulfasalazine
Experimental: as §1

[5] = test system: HSC-4, a sulfasalazine-resistant oral squamous carcinoma cell line; assay: Cell viability (CellTiter-Glo), sulfasalazine and dyclonine (Experimental Example 1); assay type: cell-based; details: 48 hours
Experimental: HSC-4, a sulfasalazine-resistant oral squamous carcinoma cell line, was seeded in a 96-well plate at 2000 cells/well, and culture was started. DMEM was used as the culture medium. After 24 hours, the medium was replaced with a medium containing 50 μM dyclonine or an equal volume of DMSO, as well as 0 (not added), 50, 100, 200, or 400 μM sulfasalazine, and the culture was continued for 48 hours.

HSC-4 cells [6] = assay: Dyclonine sensitivity after xCT knockdown, cell viability (Experimental Example 2); assay type: cell-based; details: 48 hours
Experimental: HSC-4 cells, a sulfasalazine-resistant oral squamous carcinoma cell line, were seeded in a 96-well plate at 3000 cells/well, and nonsilencing control (scrambled (Sense: UUCUCCGAACGUGUCACGUtt (SEQ ID NO. 1), Antisense: ACGUGACACGUUCGGAGAAtt (SEQ ID NO. 2))) and siRNA or xCT specific siRNA (xCT siRNA #1 Sense: AGAAAUCUGGAGGUCAUUAtt (SEQ ID NO. 3), Antisense: […] (SEQ ID NO. 4), xCT siRNA #2 Sense: CCAGAACAUUACAAAUAAUtt (SEQ ID NO. 5), Antisense: AUUAUUUGUAAUGUUCUGGtt (SEQ ID NO. 6)) were lipofected using Lipofectamine RNAiMAX (Thermo Fisher Scientific), and culture was started. DMEM was used as the culture medium. After 24 hours, the medium was replaced with a medium containing 50 μM dyclonine (solvent: DMSO) or an equal volume of DMSO, and the culture was continued for 48 hours.

[7] = test system: sulfasalazine-resistant, oral squamous carcinoma cell line HSC-2; assay: In vivo tumor weight, X-irradiation and oxyfedrine (Experimental Example 19); parameters: species or system nude mice; details: oxyfedrine 20-30 mg/kg intraperitoneally Days 1-7, versus non-treated group
Experimental: The mice were injected intraperitoneally with oxyfedrine (OXY) (20 mg/kg) for 3 consecutive days (Days 1-3) immediately after transplantation. On Day4, oxyfedrine (30 mg/kg) was intraperitoneally administered, and X-rays (4, 6, or 10 Gy) were irradiated to the nude mice 2 hours later. Then, after intraperitoneal administration of oxyfedrine (20 mg/kg) for 3 days (Days 5-7), tumors were collected on Day 7 and weighed. The results are shown in a bar graph in FIG. 21. The groups of nude mice on which transplantation was performed in the same way, to which oxyfedrine was administered in the same way without X-irradiation, and to which no oxyfedrine was administered with X-irradiation in the same way, were used as controls. For statistical treatment, Student's 1-test was performed between the oxyfedrine and non-treated groups for each X-ray dose, and p value of less than 0.05 was considered significant.

[8] = test system: SSZ-resistant tumor cells (HCT116 and HSC-4); assay: Intracellular HNE after ionizing radiation in the presence of OXY (Experimental Example 16); assay type: cell-based; details: irradiation and 50 μM OXY treatment in combination
Experimental: (§2) In this experimental example, SSZ-resistant tumor cells (HCT116 and HSC-4) were irradiated with ionizing radiation at a dose of 4, 6, or 10 Gy using an X-ray irradiation system (Hitachi MBR-1520R-4, settings: 150 kV, 20 mA) in the presence of 50 μM oxyfedrine (OXY). In parallel, samples without OXY and ionizing radiation (0 Gy) were processed as a control. After 24 hours, cell survival rate was calculated as in Experimental Example 1. In addition, intracellular HNE was visualized as in Experimental Example 6.

[9] = test system: SSZ-resistant tumor cells (HCT116 and HSC-4); assay: Cell survival rate after ionizing radiation in the presence of OXY (Experimental Example 16); assay type: cell-based; details: irradiated at 4, 6 or 10 Gy in the presence of 50 μM OXY, after 24 hours; versus irradiation or OXY alone
Experimental: as §2

A549 cells [10] = assay: Western blotting after Nrf2 siRNA lipofection (Experimental Example 17); assay type: cell-based; details: 48 hours after lipofection
Experimental: Nrf2, xCT, and β-actin expressions were detected in the extracts of SSZ-resistant tumor cells (HCT116, HSC-4, and A549) via Western blotting with primary antibodies against Nrf2, xCT, and β-actin and HRP-conjugated secondary antibody. Chemiluminescence Reagent Plus (Perkin-Elmer Japan) was used for detection.
Next, siRNA against the Nrf2 gene was lipofected into A549 cells to suppress the Nrf2 gene expression. The extracts of the lipofected A549 cells were prepared after 48 hours and the expressions of Nrf2, xCT, ALDH3A1, and β-actin were examined via Western blotting in the same way as above. The following sequences (bases shown in lower case are DNA overhangs) were used as siRNA.

CCCCS(=N)(=O)CC[C@H](N)C(=O)O (stereo partly drawn) [BSO, L-buthionine-sulfoximine]
effect on cell survival rate (A549, HCT116 and HSC4): little effect
intracellular HNE levels and frequency [1]: increased intracellular HNE levels were observed at a low frequency
intracellular GSH levels [2]: reduced

CCN(CC)c1ccc(C=O)cc1 [DEAB, N,N-diethylaminobenzaldehyde]
cell population with high ALDH activity (ALDH): approximately 1%

Cc1ccccc1C(=O)N1CCc2cc(-c3nc(NC(=O)Cc4ccc5c(c4)OCO5)sc3C)ccc21 [ML385]
cell survival rate (A549 cells [3]): effectively reduced

CCCCOc1ccc(C(=O)CCN2CCCCC2)cc1 [dyclonine]
intracellular HNE level and frequency (HSC-4 cells [4]): an increase in intracellular HNE level was observed at a low frequency
cell survival ([5]; 50 μM dyclonine alone, no sulfasalazine added, control (DMSO) = 100%): 80%
HSC-4 cell survival rate (HSC-4 cells [6]; 50 μM dyclonine alone (nonsilencing control)): approximately 60%
HSC-4 cell survival rate (HSC-4 cells [6]; xCT knockdown (xCT siRNA) in the presence of 50 μM dyclonine): 10-20%
cell population with high ALDH activity (ALDH): approximately 1%

O=C(O)c1cc(/N=N/c2ccc(S(=O)(=O)Nc3ccccn3)cc2)ccc1O [sulfasalazine]
intracellular HNE level and frequency (HSC-4 cells [4]): an increase in intracellular HNE level was observed at a low frequency
effect on cell survival rate (A549, HCT116 and HSC4): little effect
effect on cell survival ([5]; sulfasalazine alone, 50-400 μM): almost no effect
intracellular HNE levels and frequency [1]: increased intracellular HNE levels were observed at a low frequency
intracellular GSH levels [2]: reduced

oxyfedrine
tumor weight gain ([7]; 4 Gy X-irradiation): tended to be suppressed
tumor weight gain ([7]; 6 Gy X-irradiation): significantly suppressed
tumor weight gain ([7]; 10 Gy X-irradiation): significantly suppressed
tumor weight gain ([7]; without X-irradiation): tended to be suppressed
intracellular HNE-accumulating cells [8]: high levels of intracellular HNE-accumulating cells were observed at a high frequency
cytotoxic effect (A549, HCT116 and HSC4; 50 μM oxyfedrine alone, without sulfasalazine): no significant cytotoxic effect
intracellular HNE levels and frequency [1]: increased intracellular HNE levels were observed at a low frequency
intracellular GSH levels [2]: did not reduce the intracellular GSH levels
cell survival rate [9]: significantly and markedly reduced

siRNA against the Nrf2 gene: siRNA against the Nrf2 gene, SEQ ID NO. 9 and 10 (chain 1 UCCUACUGUGAUGUGAAAUTT; chain 2 AUUUCACAUCACAGUAGGAGC; sugars from the 5' end r19 d2, backbone not given here)
expressions of xCT and ALDH3A1 (A549 cells [10]): suppressed
cell survival rate (A549 cells [3]): effectively reduced
